One experiment has as its system synthetic hemozoin. The experiment in a line: Depolymerization of synthetic hemozoin in vitro. It counts as biochemical. The conditions noted are these: 50 mM test compound, acetate buffer pH 5.0, 37° C., 16 hours. On the procedure: This activity is evaluated by incubating a suspension of monomer-free hemozoin at 37° C. with compounds of the present invention for 16 hours. After incubation, hemozoin is separated from any solubilized heme and soluble heme oligomers, the oligomers depolymerized, and the heme present in the supernatants determined.
The synthesis of synthetic hemozoin is carried out as previously described (26). In brief, 60 μmoles of hematin was dissolved in 8 ml of 0.1N NaOH. Following dissolution 49 mmoles of glacial acetic acid was added and the suspension heated at 70° C. overnight. The precipitate was then washed extensively with LPS-free water. In order to remove unreacted heme the precipitate was extracted with 0.1M sodium bicarbonate (pH 9.1) for three hours. The remaining insoluble material was recovered by centrifugation, resuspended in EtOH and transferred to sterile Eppendorf tubes. The material was washed several times in EtOH and finally resuspended in LPS-free double-distilled H2O. The hemozoin preparation was then tested for endotoxin by using the Limulus Amebocyte Lysate test following manufacturer's instructions. Although the preparation of LPS-free hemozoin from native or synthetic sources is not critical for in vitro depolymerization studies, it is critical for studies involving monocytes and animals (see Examples below). Small amounts of LPS can evoke a considerable cytokine response and interfere with interpretation of results. The amount of heme in the final product was determined from a small aliquot using the pyridine-hemochrome method as previously described (26). The preparations are stored at 4° C. until used.
A suspension of monomer-free hemozoin (equivalent to 2 mM free heme) as prepared above was incubated at 37° C. with […] test compound in total volume of 500 μl in acetate buffer (pH: 5.0) in siliconized Eppendorf tubes (Brinkmann Instruments, Westbury, N.Y.) for 16 hours. A control sample containing distilled H2O instead of hemozoin was included. The samples were centrifuged at 14,000 rpm (Eppendorf centrifuge model 5415C, Brinkmann Instruments, Westbury, N.Y.) for 20 min; then 225 μl supernatant was diluted in 175 μl acetate buffer (pH 5.0). Another 225 μl was added to 175 μl 0.5 M NaOH to dissolve possible oligomeric depolymerization products to monomers. Half of the pellet was washed twice for 2.5 hr in 200 μl 2.5% SDS (v/v) in dH2O, the other half was washed twice in 200 μl HCO3^− buffer (pH: 9.1). Both sample supernatants and SDS and HCO3^− buffer supernatants were centrifuged 14,000 rpm for 20 min. and supernatants were added to 10 μl sodium dithionite (200 mg/ml dH2O) to reduce the heme monomers in solution to Fe^2+. All samples were measured in triplicate at 540 nm (Model UV1601 spectrophotometer, Shimradzu Corp, Columbia, Md.). The OD obtained from the blind sample was subtracted from the OD of the hemozoin containing sample.

The subject of another experiment is P. falciparum. The experiment in a line: P. falciparum growth in culture ([3H]-hypoxanthine incorporation). The experiment is classed as cell-based. The conditions noted are these: Plasmodium falciparum, read-out: IC50 vs. P. falc.
Setting [1] is: Table 1, aryl monoguanylhydrazones, growth in culture.
Setting [2] is: Table 3, naphthothiazolium salts, in culture.

This note sets out measurements from patent US6689777B2 (Kenneth S. Warren Institute, priority 2001, dated 2004).

pIC50: −log10 of the molar value. Structures can show the parent of a compound that is named as a salt. Where two headings read alike, the source gives them in different places.

For the compound `Cl.N=C(N)NN=Cc1ccccc1O` [2-[(2-hydroxyphenyl)methylene]hydrazinecarboximidamide hydrochloride], the “% depol. hemoz.” value in the experiment with synthetic hemozoin (Table 1) came out at 3.5%. Also, the pIC50 (usually the IC50 on a negative log10 scale, so that one unit is a factor of ten) in the experiment on P. falciparum (setting [1]) was 5.46.
Regarding `C=CCNc1nc2c(s1)c(C)c(O)c1ccccc12.Cl` [4-methyl-2-(2-propenylamino)naphtho[1,2-d]thiazol-5-ol monohydrochloride], the “% depol. hemoz.” value in the experiment on synthetic hemozoin (Table 3) is 0.4%. Also, the pIC50 in the experiment with P. falciparum (setting [2]) was 5.20.
Take `COc1ccc(O)c(C=NNC(=N)N)c1.Cl` [2-[(2-hydroxy-5-methoxyphenyl)methylene]hydrazinecarboximidamide hydrochloride]: the “% depol. hemoz.” value in the experiment on synthetic hemozoin (Table 1) is 0.9%. The negative-log IC50 (pIC50) with P. falciparum (setting [1]) was 5.36.
With `N=C(N)NN=Cc1ccnc2ccccc12` [2-[(4-quinolinyl)methylene]hydrazinecarboximidamide hydrochloride], the pIC50 with P. falciparum (setting [1]) is 5.47.
As to `COc1ccc(C=NNC(=N)N)c(O)c1` [2-[(2-hydroxy-4-methoxyphenyl)methylene]hydrazinecarboximidamide hydrochloride], the negative-log IC50 (pIC50) with P. falciparum (setting [1]) was 6.00.
Turning to `Cl.N=C(N)NN=CCc1ccc(O)c(O)c1` [2-[(3,4-dihydroxyphenyl)ethylidene]hydrazinecarboximidamide hydrochloride], in the experiment on synthetic hemozoin (Table 1), the “% depol. hemoz.” value amounted to 0.5%. Besides, the pIC50 with P. falciparum (setting [1]) was below 5.00.
Take `Cc1c(O)c2ccccc2c2c1sc(NC1CCCCC1)[n+]2CCO.[Cl-]` [2-(cyclohexylimino)-5-hydroxy-4-methylnaphtho[1,2-d]thiazole-1(2H)-ethanol monohydrochloride]: the “% depol. hemoz.” value in the experiment on synthetic hemozoin (Table 3) is reported as 0.4%. In the experiment with P. falciparum (setting [2]), the pIC50 was 6.00.
As to `Cl.N=C(N)NN=Cc1cccc(O)c1O` [2-[(2,3-dihydroxyphenyl)methylene]hydrazinecarboximidamide hydrochloride], the “% depol. hemoz.” value in the experiment on synthetic hemozoin (Table 1) is listed as 4.1%. Besides, the pIC50 in the experiment with P. falciparum (setting [1]) was below 5.00.
The like results for `CC1=CC(=O)c2cc(CC=NNC(=N)N)ccc2C1=O.Cl` [2-[(1,4-dihydro-1,4-dioxo-3-methyl-7-naphthalenyl)ethylidene]hydrazinecarboximidamide hydrochloride] were, in that order, 0.4% and 5.74.
`Cc1c(O)c2ccccc2c2c1sc(NCCO)[n+]2C.[Cl-]` [1,2-dihydro-2-[(2-hydroxyethyl)imino]-1,4-dimethylnaphtho[1,2-d]thiazol-5-ol monohydrochloride]: in the experiment on synthetic hemozoin (Table 3), the “% depol. hemoz.” value is listed as 3.1%. For the same compound, in the experiment with P. falciparum (setting [2]), the pIC50 was 5.85.
Consider `Cl.Cl.N=C(N)NN=C1CCC(=NNC(=N)N)CC1` [2,2′-(1,4-cyclohexanediylidene)bis(hydrazinecarboximidamide) dihydrochloride], for which the “% depol. hemoz.” value with synthetic hemozoin (Table 4) amounted to 0%. The pIC50 in the experiment with P. falciparum (Table 4, in culture) is 5.70.
On to `CC(CCC1=C(C)C(=O)c2ccccc2C1=O)=NNC(=N)N.Cl` [2-[3-(1,4-dihydro-1,4-dioxo-3-methyl-2-naphthalenyl)-1-methylpropylidene]hydrazinecarboximidamide hydrochloride], for which, in the experiment with synthetic hemozoin (Table 4), the “% depol. hemoz.” value was 0.1%. For the same compound, the pIC50 in the experiment with P. falciparum (Table 4, in culture) was 5.89.
For `Cc1c(O)c2ccccc2c2c1sc(Nc1ccccc1)[n+]2C.[Cl-]` [1,2-dihydro-1,4-dimethyl-2-(phenylimino)naphtho[1,2-d]thiazol-5-ol monohydrochloride], the “% depol. hemoz.” value with synthetic hemozoin (Table 3) was 0.0%. In addition, the pIC50 with P. falciparum (setting [2]) is below 5.00.
The like results for `C=CCNc1sc2c(C)c(O)c3ccccc3c2[n+]1CC=C.[Cl-]` [1,2-dihydro-4-methyl-1-(2-propenyl)-2-(2-propenylimino)naphtho[1,2-d]thiazol-5-ol monohydrochloride] were, in that order, 4.8% and 5.22.
With `CCNc1sc2c(C)c(O)c3ccccc3c2[n+]1CC.[Cl-]` [1-ethyl-2-(ethylimino)-1,2-dihydro-4-methylnaphtho[1,2-d]thiazol-5-ol monohydrochloride], the “% depol. hemoz.” value with synthetic hemozoin (Table 3) is listed as 2.4%. Besides, in the experiment with P. falciparum (setting [2]), the pIC50 was 5.60.
With `N=C(N)NN=CCc1ccc2ccccc2c1O` [2-[(1-hydroxy-2-naphthyl)ethylidene]hydrazinecarboximidamide hydrochloride], in the experiment with P. falciparum (setting [1]), the pIC50 was 5.22.
In the case of `CC(=NNC(=N)N)c1ccc(OCc2ccccc2)c(C)c1O.Cl` [2-[1-(4-benzyloxy-2-hydroxy-3-methylphenyl)ethylidene]hydrazinecarboximidamide hydrochloride], the “% depol. hemoz.” value with synthetic hemozoin (Table 1) worked out at 1.9%. Further, in the experiment with P. falciparum (setting [1]), the pIC50 is 5.88.
Turning to `C/C(=N\NC(=O)CN(C)C)c1cccc(/C(C)=N/NC(=O)CN(C)C)n1.Cl.Cl` [2,6-bis[1-[[(dimethylamino)acetyl]hydrazono]ethyl]pyridine dihydrochloride], in the experiment on synthetic hemozoin (Table 4), the “% depol. hemoz.” value is recorded as 0%. Besides, the pIC50 in the experiment on P. falciparum (Table 4, in culture) was 5.82.
As to `Cc1c(O)c2ccccc2c2nc(Nc3ccccc3)sc12.Cl` [1,2-dihydro-4-methyl-2-(phenylimino)naphtho[1,2-d]thiazol-5-ol monohydrochloride], the “% depol. hemoz.” value with synthetic hemozoin (Table 3) worked out at 0.0%. Also, in the experiment on P. falciparum (setting [2]), the pIC50 is 5.38.
For the compound `Cl.N=C(N)NN=CCc1ccccc1O` [2-[(2-hydroxyphenyl)ethylidene]hydrazinecarboximidamide hydrochloride], the “% depol. hemoz.” value with synthetic hemozoin (Table 1) is 0.4%. Further, the pIC50 in the experiment with P. falciparum (setting [1]) was below 5.00.
